Assay results from PubChem BioAssay AID1996.
In brackets after ≈: the same amount, converted by molar mass.

details: buffer; pH 7.4; 200.0 µM

| Compound | solubility kinetic |
| --- | --- |
| CCOC(=O)CC(=O)c1[nH]c(C)c(C(=O)OCC)c1C | 14.3 µg/mL (≈ 50.8 µM) |
| CCCN(C(=O)CSc1ccccc1C(=O)O)C1CCS(=O)(=O)C1 (stereo not given) | > 55.7 µg/mL |
| CSc1ccccc1NC(=O)CN(C)C(C)C(=O)NCc1ccc2c(c1)OCO2 (stereo not given) | 16 µg/mL (≈ 38.5 µM) |
| COc1ccccc1C(=O)NC(=O)CSc1nnc(C)s1 | > 48.5 µg/mL |
| Cc1c(NC(=O)C(C)Oc2ccc(Br)cc2)c(=O)n(-c2ccccc2)n1C (stereo not given) | > 64.5 µg/mL |
| O=C(O)c1ccccn1 | > 18.5 µg/mL |
| Cc1ccc(CC(=O)Nc2ccc(Cl)cn2)cc1 | 8.4 µg/mL (≈ 32.2 µM) |
| O=C(NCCc1ccccc1)C(=O)NCC1CCNCC1 | > 43.4 µg/mL |
| Cc1cccc(C(=O)OCC(=O)NC(=O)Cc2ccccc2)c1O | 5.8 µg/mL (≈ 17.7 µM) |
| O=C(COc1cccnc1[N+](=O)[O-])Nc1ccc(Cl)cc1F | 4.6 µg/mL (≈ 14.1 µM) |
| Cc1[nH]c2ccccc2c1C(=O)C(=O)NCCOc1ccccc1 | 2.2 µg/mL (≈ 6.82 µM) |
| N#Cc1c(N)n(-c2ccc(N)cc2)c2nc3ccccc3nc12 | 1.2 µg/mL (≈ 4 µM) |
| O=C(CSc1nc2ccc(Cl)cc2[nH]1)NC1CCCC1 | 9.3 µg/mL (≈ 30 µM) |
| Cc1ccc(C(=O)Nc2ccc(F)c(S(=O)(=O)N3CCOCC3)c2)s1 | 5.3 µg/mL (≈ 13.8 µM) |
| COc1ccc(C)cc1NC(=S)NC(C)c1ccc(OC)c(OC)c1 (stereo not given) | 13.3 µg/mL (≈ 36.9 µM) |
| CC(C)(C)C(=O)Nc1ccc(S(=O)(=O)N2CCCC2)cc1 | > 46.6 µg/mL |
| CC(=O)c1cn(CC(=O)Nc2ccccc2Cl)c2ccccc12 | 1 µg/mL (≈ 3.06 µM) |
| CC(=O)SCC[N+](C)(C)C.[Cl-] | 29.4 µg/mL |
| CCOc1ccc2[nH]c3c(NCCN(CC)CC)ncnc3c2c1 | 43.2 µg/mL (≈ 132 µM) |
| CC1=C(C(=O)OC2CCCCC2)C(c2ccc(O)cc2)NC(=O)N1 (stereo not given) | > 49.6 µg/mL |
| CN(CC(=O)NCCCn1ccnc1)S(=O)(=O)c1ccc(Cl)cc1 | > 55.6 µg/mL |
| CCC[N+](CC#CCO)(CC#Cc1ccccc1)CCC.[Br-] | > 54.6 µg/mL |
| CCOC(=O)c1ccc(NC(=O)c2ccc[n+]([O-])c2)cc1 | > 42.9 µg/mL |
| CCCOc1ccc(/C=N/NC(=O)CN2CCCCC2)cc1 | > 45.5 µg/mL |

| Compound | solubility kinetic |
| --- | --- |
| CC(CCc1ccccc1)NC(=O)c1ccc(F)cc1 (stereo not given) | 33.6 µg/mL (≈ 124 µM) |
| Cc1cc(C)c(C(=O)COC(=O)c2cccnc2Cl)c(C)c1 | 7.3 µg/mL (≈ 23 µM) |
| CC(=O)c1cccc(Nc2cc(C)nc3ccc(C)cc23)c1.Cl | 46.9 µg/mL |
| COc1ccc(CNC(=S)Nc2ccccc2F)cc1 | 34 µg/mL (≈ 117 µM) |
| O=C(O)Cn1c(O)c(C2=c3ccccc3=NC2=O)sc1=O | 39.4 µg/mL (≈ 129 µM) |
| CCC(C)[C@H](NC(=O)NCCC1=CCCCC1)C(=O)OC (stereo not given in full) | > 44.5 µg/mL |
| O=C(NCCNC(=O)c1cnccn1)c1ccc(Cl)c(Cl)c1 | 6.9 µg/mL (≈ 20.3 µM) |
| CC1CN(S(=O)(=O)c2ccc(C(=O)Nc3ccccc3F)cc2)CC(C)O1 (stereo not given) | > 58.9 µg/mL |
| COc1ccc(Cl)cc1C(=O)NN=C1CCCC1 | > 40 µg/mL |
| O=C(/C=C/c1c(F)cccc1Cl)Nc1cccnc1 | 13.7 µg/mL (≈ 49.5 µM) |
| Cc1nn(CC(=O)N2CCc3ccccc3C2)c(C)c1[N+](=O)[O-] | > 47.2 µg/mL |
| CCNC(=O)c1ccc(CSc2nc3ccccc3s2)cc1 | 6.7 µg/mL (≈ 20.4 µM) |
| COc1ccc(Cl)cc1NC(=O)C1CCN(S(C)(=O)=O)CC1 | > 52 µg/mL |
| O=[N+]([O-])c1c(NCc2ccco2)ccc2nonc12 | 38.4 µg/mL (≈ 148 µM) |
| Cc1onc(-c2ccccc2)c1C(=O)NCC(=O)Nc1cc(Cl)ccc1Cl | 9.4 µg/mL (≈ 23.3 µM) |
| CC1CCN(CCNC(=S)Nc2ccc(Cl)cc2)CC1 | > 46.8 µg/mL |
| CCCCOC(=O)c1ccc(NC(=O)C(=O)NCc2ccco2)cc1 | < 0.4 µg/mL |
| COc1cccc(C(c2c(N)n(C)c(=O)n(C)c2=O)C(C)[N+](=O)[O-])c1 (stereo not given) | > 52.3 µg/mL |
| COc1cccc(Nc2nc(-c3ccccc3O)nc3ccccc23)c1 | < 0.2 µg/mL |
| O=c1oc2c(-c3ccc([N+](=O)[O-])cc3)cc(O)cc2s1 | < 0.6 µg/mL |
| COc1ccc(S(=O)(=O)Nc2ccccn2)cc1C | > 41.7 µg/mL |
| COc1ccc(CC(=O)Nc2ccc(N3CCCC3)c(C)c2)cc1 | 8.9 µg/mL (≈ 27.4 µM) |
| Cc1cccc(NC(=O)CN(C)C(=O)C2CCCC2)c1C | > 43.3 µg/mL |
| Cc1cccc(N2CC(C(=O)O)CC2=O)c1C (stereo not given) | > 35 µg/mL |

| Compound | solubility kinetic |
| --- | --- |
| CCN1CCN(Cc2cccnc2)CC1 | 20.2 µg/mL (≈ 98.4 µM) |
| COc1ccccc1NC(=O)CC1CCCC1 | > 35 µg/mL |
| CCOC(=O)N1CCN(CC(=O)Nc2cc(OC)c(OC)cc2C#N)CC1 | 16.3 µg/mL (≈ 43.3 µM) |
| CC(C)NCC(O)COc1cccc2[nH]ccc12 (stereo not given) | > 37.2 µg/mL |
| O=S(=O)(Nc1ccccc1N1CCOCC1)c1ccccc1C(F)(F)F | 7.3 µg/mL (≈ 18.9 µM) |
| O=C(C[n+]1ccc2ccccc2c1)c1ccccc1.[Br-] | > 49.2 µg/mL |
| Cc1ccccc1C(=O)NCCCNC(=O)c1cnccn1 | 40.1 µg/mL (≈ 134 µM) |
| COc1cc(OC)cc(C(=O)N[C@H](C(=O)NC2CCCc3ccccc32)C(C)C)c1 (stereo not given in full) | 1.9 µg/mL (≈ 4.63 µM) |
| CCCCN1CC(O)=C(c2nc(-c3ccc(Br)cc3)cs2)C1=N | < 0.3 µg/mL |
| CCCOc1ccc(-c2nc[nH]c2[N+](=O)[O-])cc1 | 0.5 µg/mL (≈ 2.02 µM) |
| COc1cc(NC(=O)Cn2c([N+](=O)[O-])cnc2C)c(OC)cc1Cl | 45.3 µg/mL (≈ 128 µM) |
| CSc1ncccc1C(=O)NCc1ccccc1Cl | 38.1 µg/mL (≈ 130 µM) |
| CC(=O)c1ccc(OCCCC(=O)NCCc2ccccc2)cc1 | 38.8 µg/mL (≈ 119 µM) |
| COc1cc(S(=O)(=O)NCc2ccncc2)c(OC)cc1C | > 48.4 µg/mL |
| c1ccc2c(c1)OCCc1c-2[nH]c2ccccc12 | 3 µg/mL (≈ 12.8 µM) |
| Cn1c(C(=O)O)ccc1S(=O)(=O)N1CCCCCC1 | > 43 µg/mL |
| O=C(NC1CCN(Cc2ccccc2)CC1)c1ccc2c(c1)OCCCO2 | 51.6 µg/mL (≈ 141 µM) |
| Cc1cc(C)nc(NC=C2C(=O)OC(C)(C)OC2=O)n1 | 41 µg/mL (≈ 148 µM) |
| COC(=O)c1ccccc1NC(=O)CN1CCC(C)CC1 | 30.8 µg/mL (≈ 106 µM) |
| O=C(COC(=O)c1ccccc1O)NCCCc1ccccc1 | 5 µg/mL (≈ 16 µM) |
| COc1cccc(Nc2ncc(C#N)c(N)n2)c1 | 31.9 µg/mL (≈ 132 µM) |
| COc1ccc(N2CC(NC(=O)N(C)CCC#N)CC2=O)cc1 (stereo not given) | 46.7 µg/mL (≈ 148 µM) |
| COC(=O)c1cnc(Nc2cc(C)ccc2OC)c2ccccc12 | 0.7 µg/mL (≈ 2.17 µM) |
| CC(=O)Nc1ccc2c(c1)CCCC2=O | 30.2 µg/mL (≈ 149 µM) |

| Compound | solubility kinetic |
| --- | --- |
| O=C(c1cccc(Cl)c1)N1CCCc2ccccc21 | 33.6 µg/mL (≈ 124 µM) |
| Cc1cc(C)cc(NC(=O)c2cccc(N3C(=O)C4C5C=CC(C5)C4C3=O)c2)c1 (stereo not given) | < 0.4 µg/mL |
| Cc1nnc(SCCCCSc2nnc(C)c(=O)[nH]2)[nH]c1=O | > 51.1 µg/mL |
| Cc1cc(C)nc(SCC(=O)N(C)C)n1 | 31.7 µg/mL (≈ 141 µM) |
| CC1CCCN(C2(O)C(=O)Nc3ccc(Cl)cc32)C1 (stereo not given) | > 42.1 µg/mL |
| CCc1nc2ccccc2n1CCc1ccccc1.Cl | 37.6 µg/mL |
| COc1ccc(OC)c(N=Cc2c(O)[nH]c(=O)[nH]c2=O)c1 | 7.1 µg/mL (≈ 24.4 µM) |
| Cc1ccccc1Oc1ncnc(N)c1[N+](=O)[O-] | 9.8 µg/mL (≈ 39.8 µM) |
| CS(=O)(=O)Nc1ccccc1NS(C)(=O)=O | > 39.6 µg/mL |
| O=C1COc2ccc(S(=O)(=O)N3CCCCC3)cc2N1 | 43.3 µg/mL (≈ 146 µM) |
| Cc1ccc(NC(=O)CNCc2ccccc2)c(Br)c1 | 34.3 µg/mL (≈ 103 µM) |
| COc1ccc(CCN(C)C/C=C/c2ccccc2)cc1OC | 30.1 µg/mL (≈ 96.7 µM) |
| O=Cc1c(NCc2ccc(Cl)cc2)c2ccccc2[nH]c1=O | 2.8 µg/mL (≈ 8.95 µM) |
| Cc1ccc(C(=O)NC2CC3CCC(C2)N3C)cc1 (stereo not given) | > 38.8 µg/mL |
| CC(=O)c1cccc(Nc2nc(-c3sc(C)nc3C)cs2)c1 | 1 µg/mL (≈ 3.04 µM) |
| Oc1[nH]c(=S)sc1C=C1N=c2ccccc2=N1 | > 39.2 µg/mL |
| CN1CN=C(NS(=O)(=O)c2ccc([N+](=O)[O-])cc2)NC1 | > 44.9 µg/mL |
| N#C/C(=C\c1ccc(O)cc1)C(=O)NCc1cccc(Cl)c1 | < 0.3 µg/mL |
| CN(C(=S)NC(=O)c1ccc(Cl)cc1)C1CCCCC1 | 6.4 µg/mL (≈ 20.6 µM) |
| O=C1Cc2ccccc2C(c2c(Cl)cccc2Cl)N1 (stereo not given) | < 0.6 µg/mL |
| CC(=O)Nc1ccc(S(=O)(=O)NC2C3(C)CCC(C3)C2(C)C)cc1 (stereo not given) | < 0.4 µg/mL |
| CCN(C(=O)CSc1nc2ccccc2c(=O)n1-c1ccccc1F)C1CCS(=O)(=O)C1 (stereo not given) | 9.5 µg/mL (≈ 20 µM) |
| CN(C)c1ccc(C(=O)NC2(N3CCC3=O)CCCC2)cc1 | > 45.2 µg/mL |
| O=C(CCCc1ccccc1)Nc1ccccc1C(F)(F)F | 5.1 µg/mL (≈ 16.6 µM) |

| Compound | solubility kinetic |
| --- | --- |
| CCC(C(=O)Nc1nc(C)c(C)s1)c1ccccc1 (stereo not given) | 38.3 µg/mL (≈ 140 µM) |
| COc1cc(C(=O)OCC(=O)N2CCCCCC2)c([N+](=O)[O-])cc1OC | > 55 µg/mL |
| Cc1cccc(C)c1C(=NCCN(C)C)c1ccccc1.Cl | > 53 µg/mL |
| CCNc1nc(SCC(N)=O)nc2sc3c(c12)CCN(C)C3 | > 50.6 µg/mL |
| O=C(Nc1ccc(Nc2ccccc2)cc1)c1c(Cl)cccc1Cl | 1.2 µg/mL (≈ 3.36 µM) |
| O=C(NCCNC(=O)c1ccco1)c1ccc(F)cc1 | > 41.4 µg/mL |
| CNCCc1ccc(OC)c(OC)c1 | > 29.3 µg/mL |
| CC(=O)Nc1nc(C)c(Oc2ccc(Cl)cc2)c(=O)[nH]1 | 43 µg/mL (≈ 146 µM) |
| Cl.O=C(c1cccc(S(=O)(=O)N2CCc3ccccc32)c1)N1CCN(CCO)CC1 | > 67.8 µg/mL |
| COc1ccc(OC)c(NC(=O)c2ccc3c(c2)OCO3)c1 | 4.7 µg/mL (≈ 15.6 µM) |
| Oc1ccc2ccccc2c1CN1CCOCC1 | > 36.5 µg/mL |
| Nc1ncc([N+](=O)[O-])c(N2CCCCCC2)n1 | > 35.6 µg/mL |
| CN(CC(=O)Nc1ccc(Cl)cc1)C(=O)Cc1c(F)cccc1Cl | 14.6 µg/mL (≈ 39.5 µM) |
| Cc1ccc(N(C)S(=O)(=O)c2cccc(C(=O)OCC(=O)c3c(N)n(C)c(=O)n(C)c3=O)c2)cc1 | 8.1 µg/mL (≈ 16.2 µM) |
| COc1ccc(OCCNS(=O)(=O)c2cccc([N+](=O)[O-])c2)cc1 | 16.4 µg/mL (≈ 46.5 µM) |
| CN(C(=O)Cn1cc(C#N)c2ccccc21)c1ccccc1 | 7.4 µg/mL (≈ 25.6 µM) |
| COC(=O)c1ccc(CSc2nc(C(F)F)cc(C)c2C#N)o1 | 8.3 µg/mL (≈ 24.5 µM) |
| CCCSc1ncccc1C(=O)O | > 29.6 µg/mL |
| COc1ccc(CN2CCN(C(=O)c3ccc4c(c3)CCC4)CC2)cc1OC | 39.5 µg/mL (≈ 104 µM) |
| CC(=O)Nc1ccc(NC(=O)CCSCCc2ccccn2)cc1 | > 51.5 µg/mL |
| Cc1ccc(C(=O)Nc2cccc3[nH]c(C(F)(F)F)nc23)cc1 | 3.3 µg/mL (≈ 10.3 µM) |
| O=C(/C=C/c1ccccn1)c1cc(Cl)cc(Cl)c1O | 5.9 µg/mL (≈ 20.1 µM) |
| CC1=CCC(C(=O)O)C(C(=O)NC2CCCCC2)C1 (stereo not given) | > 39.8 µg/mL |
| Cc1ccc(C)c(N2CCN(C3CCCC(C)C3)CC2)c1 (stereo not given) | 23.3 µg/mL (≈ 81.3 µM) |
